Where a SMILES comes first, the peptide text is derived from it. The star is where a group is joined. Succinyl(4-O-cholesteryl) = CC(C)CCC[C@@H](C)[C@H]1CC[C@H]2[C@@H]3CC=C4C[C@@H](OC(=O)CCC(=O)*)CC[C@]4(C)[C@H]3CC[C@]12C
Experiments:
hMPV-N46 (127-172) = target: T1, hMPV-N46 (127-172) (Human metapneumovirus, UniProt Q6WB98); assay: SPR affinity to hMPV-N46 coupled on CM5 chip; assay type: binding
T1 construct: hMPV-N46 (127-172)
Description: (§1) hMPV and hPIV were two viruses having a typical Class I fusion protein-F protein. An F protein precursor F0 was cracked into F1 and F2 subunits. […] When the compound flowed through a chip surface, changes in an SPR signal were monitored in real time, binding and dissociation processes were recorded, and a binding rate constant (ka) and a dissociation rate constant (kd) were further obtained through kinetic analysis, thereby calculating an equilibrium dissociation constant (KD=kd/ka).
(§2) A CM5 chip with a catalog number 29149603, an amino coupling reagent kit with a catalog number BR100050, HBS-EP+Buffer (10×), sodium acetate (pH 4.0), and a 10 mM glycine-HCl buffer (pH 2.0) were all purchased from GE Health.
(§3) CM5 chip coupling: Channels 2 and 4 of the CM5 chip were activated for 7 min by using a freshly-prepared mixture of 50 mM Hydroxy succinimide (NHS) and 200 mM 1-(3-Dimethylaminopropyl)-3-ethylcarbodiimide (EDC) according to 1:1; and then, hMPV-N46 or hPIV-N51 was diluted and dissolved with sodium acetate with 4.0 pH to a concentration of 30 μM, with a flow rate of 10 μl/min and time of 600 s. An experimental buffer was HBS-EP+buffer (1×). Finally, the chip was blocked with 1 M ethanolamine. The instrument was set to a temperature of 25° C.
(§4) Affinity detection: the buffer used in the experiment was HBS-EP+buffer (1×), and a multi-cycle dynamic mode was used. Channels 1 and 3 of the chip served as blank reference channels; polypeptides to be detected sequentially flowed through Channels 2 and 4 at concentrations of 0 μM, 0.04 µM, 0.12 µM, 0.37 μM, 1.11 µM, 3.33 µM, 10 µM, and 30 μM; the flow rate was 30 μl/min, binding was performed for 180 s, and dissociation was performed for 120 s. Finally, the chip was regenerated by injecting 10 mM glycine (pH 2.0). The instrument was set to a temperature of 25° C.

hPIV-N51 (139-189) = target: T2, hPIV-N51 (139-189) (Human parainfluenza 3 virus, UniProt P06828); assay: SPR affinity to hPIV-N51 coupled on CM5 chip; assay type: binding
T2 construct: hPIV-N51 (139-189)
T2 sequence (P06828 139-189): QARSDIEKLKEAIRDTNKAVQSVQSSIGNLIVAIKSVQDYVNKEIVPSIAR
Description: as §1, §2, §3, §4

hMPV A2 = assay type: cell-based; conditions: Vero cells, plaque reduction
Description: (§5) African green monkey kidney cells (Vero) were sourced from the ATCC, with catalog number CCL-81. The cells were cultured in a DMEM culture solution in which 10% fetal bovine serum, 1% non-essential amino acids, 1% sodium pyruvate, 1% L-glutamine, 100 U/ml penicillin, and 100 μg/ml streptomycin were added.
(§6) A hMPV plaque experiment culture medium consisted of an Opti-MEM culture solution added with 1% non-essential amino acids, 100 U/mL penicillin, and 100 μg/mL streptomycin.
(§7) hMPV virus strains A2 and B1 were constructed by WuXi App Tec.
(§8) This study used a plaque reduction experiment to detect the in-vitro activity of a test sample against the hMPV virus strains A2 and B1.
(§9) The test sample and an experimental system were tested at 8 concentrations in duplicated wells. The Vero cells were digested with trypsin and then diluted to a concentration of 400,000 cells per milliliter by using a cell culture solution containing 2% serum. The diluted cells were added to a 96-well cell test board, with 100 μL per well, corresponding to 40000 cells per well. The cells were cultured overnight in a 37° C. incubator with 5% CO2.
(§10) On the second day, the test sample was diluted in an experimental culture medium at a fold ratio. The sample diluted at a fold ratio and an equal volume of virus (approximately 200 PFU per well) were well mixed and incubated at 33° C. in 5% CO2 for 1 h. Then, the culture solution in the 96-well cell test board was discarded, the sample virus mixed solution (100 μL) was added to the 96-well cell culture plate, and incubated at 37° C. in 5% CO2 for 2 hours. After 2 h, the sample virus mixed solution was discarded, 200 μL of an experiment culture medium containing the test sample with a corresponding concentration was added, and the culture solution contained 0.8% CMC and 5 μg/ml trypsin. A final concentration of DMSO in the culture solution was 0.5%. A system control antibody was directly added to the experiment culture solution containing 0.8% CMC and 5 μg/ml trypsin. A cell control (cells, without compound treatment or viral infection) and a viral control (cell infection virus, without compound treatment) were set. The cells were cultured for 1 day in the 33° C. incubator with 5% CO2.
(§11) The cells were fixed with 4% paraformaldehyde, and then permeabilization was performed with 0.5% Triton X-100. After the plate was washed with DPBS, a hMPV specific antibody (1:2000 dilution) was added and incubated at 37° C. for 1.5 h. Then, a secondary antibody (1:1000 dilution) was added and incubated at 37° C. for 1 hour. The secondary antibody was discarded, a TrueBlue solution was added, dyeing was performed for approximately 10 minutes; and the plate was washed with running water and then air-dried, and the number of spots in each well was counted by using a microplate imaging counter.
(§12) Raw data was used for analyzing the antiviral activity of the test samples. A calculation formula was shown as follows.
(§13) % inhibition rate=100−(sample value-cell control average value)/(virus control average value-cell control average value)×100
(§14) Non-linear fitting analysis was performed on the inhibition rate of the sample by using GraphPad Prism (version 10), so as to calculate an EC50 value for the sample. A fitting formula was log (inhibitor) vs. response-Variable slope (four parameters).

hMPV B1 = assay type: cell-based; conditions: Vero cells, plaque reduction
Description: as §5, §6, §7, §8, §9, §10, §11, §12, §13, §14

T1 sequence (Q6WB98 127-172): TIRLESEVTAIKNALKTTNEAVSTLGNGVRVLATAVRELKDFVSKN

CC[C@H](C)[C@H](NC(=O)[C@H](CCCCN)NC(=O)[C@H](CCCCN)NC(=O)[C@H](CC(C)C)NC(=O)[C@H](CO)NC(=O)[C@H](CCC(=O)O)NC(=O)[C@H](CCC(=O)O)NC(=O)[C@@H](NC(=O)[C@H](CCCCN)NC(=O)[C@H](CCCCN)NC(=O)[C@H](CC(N)=O)NC(=O)[C@@H](NC(=O)[C@H](CCC(=O)O)NC(=O)[C@H](CCC(=O)O)NC(=O)[C@@H](NC(=O)[C@H](CCCCN)NC(=O)[C@H](CCCCN)NC(=O)[C@H](CC(=O)O)NC(=O)[C@H](Cc1ccccc1)NC(=O)[C@H](CCC(=O)O)NC(=O)[C@H](CC(=O)O)NC(=O)[C@H](Cc1c[nH]c2ccccc12)NC(C)=O)[C@@H](C)CC)C(C)C)[C@@H](C)CC)C(=O)N[C@@H](CCC(=O)O)C(=O)N[C@@H](CCC(=O)O)C(=O)N[C@@H](CO)C(=O)N[C@@H](CC(=O)O)C(=O)N[C@@H](CCCCN)C(=O)N[C@@H](CCCCN)C(=O)N[C@@H](CC(C)C)C(=O)N[C@@H](CCC(=O)O)C(=O)N[C@@H](CCC(=O)O)C(=O)N[C@H](C(=O)N[C@@H](CC(N)=O)C(=O)N[C@@H](CCC(=O)O)C(=O)N[C@@H](C)C(=O)N[C@@H](C)C(=O)N[C@@H](C)C(=O)N[C@@H](CCCCN)C(=O)N[C@@H](CCCCNC(=O)CCC(=O)O[C@H]1CC[C@@]2(C)C(=CC[C@H]3[C@@H]4CC[C@H]([C@H](C)CCCC(C)C)[C@@]4(C)CC[C@@H]32)C1)C(N)=O)C(C)C [Compound 41] (Ac-WDEFDKKIEEVNKKIEESLKKIEESDKKLEEVNEAAAKK(Succinyl(4-O-cholesteryl))-NH2)
Kd (hMPV-N46 (127-172)): 4730 nM
Kd (hPIV-N51 (139-189)): 492 nM
EC50 (hMPV A2): 11.7 nM
EC50 (hMPV B1): 9.46 nM

CC[C@H](C)[C@H](NC(=O)[C@H](CO)NC(=O)[C@H](C)NC(=O)[C@H](CC(=O)O)NC(=O)[C@H](Cc1ccccc1)NC(=O)[C@H](CCC(=O)O)NC(=O)[C@H](CC(=O)O)NC(=O)[C@H](Cc1c[nH]c2ccccc12)NC(C)=O)C(=O)N[C@@H](CCC(=O)O)C(=O)N[C@@H](CCC(=O)O)C(=O)N[C@H](C(=O)N[C@@H](CC(N)=O)C(=O)N[C@@H](CCCNC(=N)N)C(=O)N[C@@H](CCCNC(=N)N)C(=O)N[C@H](C(=O)N[C@@H](CCC(=O)O)C(=O)N[C@@H](CCC(=O)O)C(=O)N[C@@H](CO)C(=O)N[C@@H](CC(C)C)C(=O)N[C@@H](CCCNC(=N)N)C(=O)N[C@@H](CCCNC(=N)N)C(=O)N[C@H](C(=O)N[C@@H](CCC(=O)O)C(=O)N[C@@H](CCC(=O)O)C(=O)N[C@@H](CO)C(=O)N[C@@H](CC(=O)O)C(=O)N[C@@H](CCCNC(=N)N)C(=O)N[C@@H](CCCNC(=N)N)C(=O)N[C@@H](CC(C)C)C(=O)N[C@@H](CCC(=O)O)C(=O)N[C@@H](CCC(=O)O)C(=O)N[C@H](C(=O)N[C@@H](CCC(=O)O)C(=O)N[C@@H](C)C(=O)N[C@@H](C)C(=O)N[C@@H](C)C(=O)N[C@@H](CCCCN)C(=O)N[C@@H](CCCCNC(=O)CCC(=O)O[C@H]1CC[C@@]2(C)C(=CC[C@H]3[C@@H]4CC[C@H]([C@H](C)CCCC(C)C)[C@@]4(C)CC[C@@H]32)C1)C(N)=O)C(C)C)[C@@H](C)CC)[C@@H](C)CC)C(C)C [Compound 43] (Ac-WDEFDASIEEVNRRIEESLRRIEESDRRLEEVEAAAKK(Succinyl(4-O-cholesteryl))-NH2)
Kd (hMPV-N46 (127-172)): 71400 nM
Kd (hPIV-N51 (139-189)): 5720 nM
EC50 (hMPV A2): 16.8 nM
EC50 (hMPV B1): 8.01 nM

Ac-FDEEISQVNEKINQSLAFIRKSDELLHNVNAGKSTTEAAAKK(Succinyl(4-O-cholesteryl))-NH2 [Compound 26]
Kd (hMPV-N46 (127-172)): 2150 nM
Kd (hPIV-N51 (139-189)): 2580 nM
EC50 (hMPV A2): 103 nM
EC50 (hMPV B1): 2.85 nM

CC[C@H](C)[C@H](NC(=O)[C@H](CCCCN)NC(=O)[C@H](CCCCN)NC(=O)[C@H](CC(C)C)NC(=O)[C@H](CO)NC(=O)[C@H](CCC(=O)O)NC(=O)[C@H](CCC(=O)O)NC(=O)[C@@H](NC(=O)[C@H](CCCCN)NC(=O)[C@H](CCCCN)NC(=O)[C@H](CC(N)=O)NC(=O)[C@@H](NC(=O)[C@H](CCC(=O)O)NC(=O)[C@H](CCC(=O)O)NC(=O)[C@@H](NC(=O)[C@H](CCCCN)NC(=O)[C@H](CCCCN)NC(=O)[C@H](CC(=O)O)NC(=O)[C@H](Cc1ccccc1)NC(=O)[C@H](CCC(=O)O)NC(=O)[C@H](CC(=O)O)NC(=O)[C@H](CO)NC(C)=O)[C@@H](C)CC)C(C)C)[C@@H](C)CC)C(=O)N[C@@H](CCC(=O)O)C(=O)N[C@@H](CCC(=O)O)C(=O)N[C@@H](CO)C(=O)N[C@@H](CC(=O)O)C(=O)N[C@@H](CCCCN)C(=O)N[C@@H](CCCCN)C(=O)N[C@@H](CC(C)C)C(=O)NCC(=O)N[C@@H](CO)C(=O)NCC(=O)N[C@@H](CO)C(=O)NCC(=O)N[C@@H](CCCCNC(=O)CCC(=O)O[C@H]1CC[C@@]2(C)C(=CC[C@H]3[C@@H]4CC[C@H]([C@H](C)CCCC(C)C)[C@@]4(C)CC[C@@H]32)C1)C(N)=O [Compound 20] (Ac-SDEFDKKIEEVNKKIEESLKKIEESDKKLGSGSGK(Succinyl(4-O-cholesteryl))-NH2)
Kd (hMPV-N46 (127-172)): 19100 nM
Kd (hPIV-N51 (139-189)): 6800 nM
EC50 (hMPV A2): 7.47 nM
EC50 (hMPV B1): 4.27 nM

Ac-LVKKIDEFDASISQVNEKINQSLEEIRKSDELLHNVGSGSGK(Succinyl(4-O-cholesteryl))-NH2 [Compound 29]
Kd (hMPV-N46 (127-172)): 48.2 nM
Kd (hPIV-N51 (139-189)): 1730 nM
EC50 (hMPV A2): 41.6 nM
EC50 (hMPV B1): 11.1 nM

CC[C@H](C)[C@H](NC(=O)[C@H](CCCCN)NC(=O)[C@H](CCCCN)NC(=O)[C@H](CC(C)C)NC(=O)[C@H](CO)NC(=O)[C@H](CCC(=O)O)NC(=O)[C@H](CCC(=O)O)NC(=O)[C@@H](NC(=O)[C@H](CCCCN)NC(=O)[C@H](CCCCN)NC(=O)[C@H](CC(N)=O)NC(=O)[C@@H](NC(=O)[C@H](CCC(=O)O)NC(=O)[C@H](CCC(=O)O)NC(=O)[C@@H](NC(=O)[C@H](CCCCN)NC(=O)[C@H](CCCCN)NC(=O)[C@H](CCCCN)NC(=O)[C@H](CC(=O)O)NC(=O)[C@H](Cc1ccccc1)NC(=O)[C@H](CCC(=O)O)NC(=O)[C@H](CC(=O)O)NC(C)=O)[C@@H](C)CC)C(C)C)[C@@H](C)CC)C(=O)N[C@@H](CCC(=O)O)C(=O)N[C@@H](CCC(=O)O)C(=O)N[C@@H](CO)C(=O)N[C@@H](CC(=O)O)C(=O)N[C@@H](CCCCN)C(=O)N[C@@H](CCCCN)C(=O)N[C@@H](CC(C)C)C(=O)N[C@@H](CCC(=O)O)C(=O)N[C@@H](CCC(=O)O)C(=O)N[C@H](C(=O)NCC(=O)N[C@@H](CO)C(=O)NCC(=O)N[C@@H](CO)C(=O)NCC(=O)N[C@@H](CCCCNC(=O)CCC(=O)O[C@H]1CC[C@@]2(C)C(=CC[C@H]3[C@@H]4CC[C@H]([C@H](C)CCCC(C)C)[C@@]4(C)CC[C@@H]32)C1)C(N)=O)C(C)C [Compound 15] (Ac-DEFDKKKIEEVNKKIEESLKKIEESDKKLEEVGSGSGK(Succinyl(4-O-cholesteryl))-NH2)
Kd (hMPV-N46 (127-172)): 38.1 nM
Kd (hPIV-N51 (139-189)): 1390 nM
EC50 (hMPV A2): 17.9 nM
EC50 (hMPV B1): 5.18 nM
